The record followed here is patent US12325697B2 (Nimbus Clio, Inc., priority 2021, dated 2025).

Assay [1] has as its target Recombinant human Cbl-b (aa 36-427) (Homo sapiens (Human), UniProt Q13191). In words: Cbl-b Biochemical Assay (TR-FRET). To be noted: read-out: TR-FRET hCbl-b IC50. An outline of the steps:
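IC50 from 4-parameter fit of % inhibition (DMSO max, reference-inhibitor min), duplicate ten-point series. Compound preincubated with 6 nM Cbl-b, then Src-Zap70 (1-2.5 nM)/0.5 mM ATP reaction 60 min RT; EDTA quench with labelled UBE2D2-Ub and streptavidin-terbium, 60 min, HTRF at 520 nm.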

Assay [2] deals with Jurkat (clone E6-1) cells, NFAT luciferase reporter. In words: Jurkat Reporter Assay (NFAT Luciferase). To be noted: Homo sapiens, anti-CD3 stimulation, 6 hr, read-out: Jurkat NFAT EC50. Format: cell-based.

pEC50, pIC50: −log10 of the molar value. Structures can show the parent of a compound that is named as a salt.

Chain of Recombinant human Cbl-b (aa 36-427) (Q13191 36-427): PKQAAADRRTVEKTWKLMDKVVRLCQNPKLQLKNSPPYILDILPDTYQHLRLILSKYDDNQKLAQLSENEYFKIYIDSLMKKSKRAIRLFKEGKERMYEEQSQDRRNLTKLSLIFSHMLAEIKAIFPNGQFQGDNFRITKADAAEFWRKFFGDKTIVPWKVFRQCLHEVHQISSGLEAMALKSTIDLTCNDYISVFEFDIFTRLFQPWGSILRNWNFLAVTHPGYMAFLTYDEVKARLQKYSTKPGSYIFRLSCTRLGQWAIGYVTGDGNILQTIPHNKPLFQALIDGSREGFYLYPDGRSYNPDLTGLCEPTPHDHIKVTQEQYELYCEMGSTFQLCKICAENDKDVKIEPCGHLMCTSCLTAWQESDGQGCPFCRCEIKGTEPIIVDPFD

One may read the pIC50 as the IC50 on a negative log10 scale, so that one unit is a factor of ten. The pEC50 is the EC50 on a negative log10 scale, so that one unit is a factor of ten. For `COc1ccc2c(c1)CN(c1cc(-c3ccccc3-c3nncn3C)cc(C3CC3)n1)C2=O` [AER-1], the pIC50 in assay [1] is at least 6.70. For the same molecule, in assay [2], the pEC50 was 4.30 to 5.00.

Consider `Cn1cnnc1-c1cc(C#N)ccc1-c1ccnc(N2Cc3c(cc(CO)cc3C(F)(F)F)C2=O)c1` [AEX-2, 4-{2-[6-(Hydroxymethyl)-1-oxo-4-(trifluoromethyl)-3H-isoindol-2-yl]pyridin-4-yl}-3-(4-methyl-1,2,4-triazol-3-yl) benzonitrile], for which, in assay [1], the pIC50 was at least 6.70. In addition, in assay [2], the pEC50 is 5.00 to 6.00.

`CCNc1cc(-c2ccc(OC)cc2-c2nncn2C)cc(N2Cc3c(cccc3C(F)(F)F)C2=O)n1` [AFB-8, 2-[6-(Ethylamino)-4-[4-methoxy-2-(4-methyl-1,2,4-triazol-3-yl)phenyl]pyridin-2-yl]-4-(trifluoromethyl)-3H-isoindol-1-one]: the negative logarithm of the IC50 (pIC50) in assay [1] is at least 6.70. Besides, the pEC50 in assay [2] is 6.00 to 6.70.

Regarding `CCNc1cc(-c2ccc(C(=O)OC)cc2-c2nncn2C)cc(N2Cc3c(cccc3C(F)(F)F)C2=O)n1` [AFC-1, Methyl 4-[2-(ethylamino)-6-[1-oxo-4-(trifluoromethyl)-3H-isoindol-2-yl]pyridin-4-yl]-3-(4-methyl-1,2,4-triazol-3-yl) benzoate], the pIC50 in assay [1] was 5.00 to 6.00. The pEC50 in assay [2] was 4.30 to 5.00.

`CCNc1cc(-c2ccc(CO)cc2-c2nncn2C)cc(N2Cc3c(cccc3C(F)(F)F)C2=O)n1` [AFD-1, 2-[6-(ethylamino)-4-[4-(hydroxymethyl)-2-(4-methyl-1,2,4-triazol-3-yl)phenyl]pyridin-2-yl]-4-(trifluoromethyl)-3H-isoindol-1-one]: in assay [1], the pIC50 is at least 6.70. In addition, the pEC50 in assay [2] was 4.30 to 5.00.

For the molecule `CCNc1cc(-c2c(-c3nncn3C)cnn2C)cc(N2Cc3c(cc(COCC4(F)CCC4)cc3C(F)(F)F)C2=O)n1` [AFP-2, 2-[6-(Ethylamino)-4-[2-methyl-4-(4-methyl-1,2,4-triazol-3-yl)pyrazol-3-yl]pyridin-2-yl]-6-{[(1-fluorocyclobutyl)methoxy]methyl}-4-(trifluoromethyl)-3H-isoindol-1-one], the pIC50 in assay [1] is at least 6.70. Further, the pEC50 in assay [2] was 6.00 to 6.70.

With `Cc1ccc2c(c1)C(=O)N(c1cc(-c3ccc(F)cc3-c3nncn3C)cc(C(C)C)n1)C2` [AFY-1, 2-(4-(4-fluoro-2-(4-methyl-4H-1,2,4-triazol-3-yl)phenyl)-6-isopropylpyridin-2-yl)-6-methylisoindolin-1-one], in assay [1], the pIC50 is 5.00 to 6.00. Further, the pEC50 in assay [2] was 4.30 to 5.00.

As for `CCNc1cc(-c2nn(CC(C)C)cc2-c2nncn2C)cc(N2Cc3c(cccc3C(F)(F)F)C2=O)n1` [AGX-8, 2-[6-(Ethylamino)-4-[4-(4-methyl-1,2,4-triazol-3-yl)-1-(2-methylpropyl)pyrazol-3-yl]pyridin-2-yl]-4-(trifluoromethyl)-3H-isoindol-1-one], the pIC50 in assay [1] was 4.30 to 5.00. In assay [2], the pEC50 was 4.30 to 5.00.

As for `CN(Cc1cc2c(c(C(F)(F)F)c1)CN(c1cc(-c3ccc(C#N)cc3-c3nncn3C)cc(C3CC3)n1)C2=O)C(=O)OC(C)(C)C` [AGY-3, tert-Butyl N-[(2-{4-[4-cyano-2-(4-methyl-1,2,4-triazol-3-yl)phenyl]-6-cyclopropylpyridin-2-yl}-3-oxo-7-(trifluoromethyl)-1H-isoindol-5-yl)methyl]-N-methylcarbamate], the pIC50 in assay [1] was at least 6.70. For the same molecule, the pEC50 in assay [2] is 6.00 to 6.70.

Regarding `CCCn1cc(-c2nncn2C)c(-c2cc(NCC)nc(N3Cc4c(cccc4C(F)(F)F)C3=O)c2)n1` [AHD-9, 2-[6-(Ethylamino)-4-[4-(4-methyl-1,2,4-triazol-3-yl)-1-propylpyrazol-3-yl]pyridin-2-yl]-4-(trifluoromethyl)-3H-isoindol-1-one], the negative logarithm of the IC50 (pIC50) in assay [1] was 4.30 to 5.00. Besides, the pEC50 in assay [2] was 4.30 to 5.00.

With `CCOc1cc(-c2ccc(C#N)cc2-c2nncn2C)cc(N2Cc3c(cc(COCCNC)cc3C(F)(F)F)C2=O)n1` [AHE-4], the pIC50 in assay [1] is at least 6.70. Also, in assay [2], the pEC50 was 5.00 to 6.00.

Consider `Cn1cnnc1-c1cc(C#N)ccc1-c1cc(C2CC2)nc(N2Cc3c(cc(COCCO)cc3C(F)(F)F)C2=O)c1` [AHF-4, 4-(2-Cyclopropyl-6-{6-[(2-hydroxyethoxy)methyl]-1-oxo-4-(trifluoromethyl)-3H-isoindol-2-yl}pyridin-4-yl)-3-(4-methyl-1,2,4-triazol-3-yl)benzonitrile], for which, in assay [1], the pIC50 was at least 6.70. For the same molecule, the pEC50 in assay [2] is above 6.70.

Turning to `C[C@H](Cc1nncn1C)c1cc(Cl)nc(N2Cc3c(cccc3C(F)(F)F)C2=O)c1` [AHJ-11, (R)-2-(6-Chloro-4-(1-(4-methyl-4H-1,2,4-triazol-3-yl)propan-2-yl)pyridin-2-yl)-4-(trifluoromethyl)isoindolin-1-one], the pIC50 in assay [1] was 5.00 to 6.00. Moreover, the pEC50 in assay [2] was 4.30 to 5.00.

Turning to `C[C@H](Cc1nncn1C)c1cc(NS(C)(=O)=O)nc(N2Cc3c(cccc3C(F)(F)F)C2=O)c1` [AHK-1, N-[4-[(2R)-1-(4-Methyl-1,2,4-triazol-3-yl)propan-2-yl]-6-[1-oxo-4-(trifluoromethyl)-3H-isoindol-2-yl]pyridin-2-yl]methanesulfonamide], the pIC50 in assay [1] was 6.00 to 6.70. The pEC50 in assay [2] was 4.30 to 5.00.

Consider `C[C@@H](Cc1nncn1C)c1cc(NS(C)(=O)=O)nc(N2Cc3c(cccc3C(F)(F)F)C2=O)c1` [AHL-8, N-[4-[(2S)-1-(4-Methyl-1,2,4-triazol-3-yl)propan-2-yl]-6-[1-oxo-4-(trifluoromethyl)-3H-isoindol-2-yl]pyridin-2-yl]methanesulfonamide], for which, in assay [1], the pIC50 is 4.30 to 5.00. Besides, the pEC50 in assay [2] is 4.30 to 5.00.

Turning to `CCOc1cc(N2Cc3c(cccc3C(F)(F)F)C2=O)cc(C2(Cc3nncn3C)COC2)c1` [AHM-12, 2-(3-Ethoxy-5-[3-[(4-methyl-1,2,4-triazol-3-yl)methyl]oxetan-3-yl]phenyl)-4-(trifluoromethyl)-3H-isoindol-1-one], the pIC50 in assay [1] is 6.00 to 6.70. Also, the pEC50 in assay [2] is 5.00 to 6.00.

`CCNc1cc(-c2ccccc2-c2nncn2C)cc(N2Cc3c(cc(CN4CC[C@@H](O)C4)cc3C(F)(F)F)C2=O)n1` [AT-1, (R)-2-(6-(Ethylamino)-4-(2-(4-methyl-4H-1,2,4-triazol-3-yl)phenyl)pyridin-2-yl)-6-((3-hydroxypyrrolidin-1-yl)methyl)-4-(trifluoromethyl)isoindolin-1-one]: the negative logarithm of the IC50 (pIC50) in assay [1] was at least 6.70. Further, the pEC50 in assay [2] is 6.00 to 6.70.

In the case of `CCNc1cc(-c2ccccc2-c2nncn2C)cc(N2Cc3c(cc(CN4CCC(F)(F)[C@H](C)C4)cc3C(F)(F)F)C2=O)n1` [AU-2, (R)-6-((4,4-Difluoro-3-methylpiperidin-1-yl)methyl)-2-(6-(ethylamino)-4-(2-(4-methyl-4H-1,2,4-triazol-3-yl)phenyl)pyridin-2-yl)-4-(trifluoromethyl)isoindolin-1-one], in assay [1], the pIC50 is at least 6.70. The pEC50 in assay [2] was 6.00 to 6.70.

For the molecule `Cn1cnnc1-c1ccccc1-c1cccc(N2Cc3c(cc(CO[C@@H]4CCC[C@@H]4O)cc3C(F)(F)F)C2=O)c1` [AV-3, 6-((((1R,2S)-2-Hydroxycyclopentyl)oxy)methyl)-2-(2′-(4-methyl-4H-1,2,4-triazol-3-yl)-[1,1′-biphenyl]-3-yl)-4-(trifluoromethyl)isoindolin-1-one], in assay [1], the pIC50 is 6.00 to 6.70. In addition, the pEC50 in assay [2] is 5.00 to 6.00.

As to `O=C1c2cc(CNCC3(O)CCC3)cc(C(F)(F)F)c2CN1c1ccccc1` [AX-3, 6-((((1-Hydroxycyclobutyl)methyl)amino)methyl)-2-phenyl-4-(trifluoromethyl)isoindolin-1-one], in assay [1], the pIC50 was 4.30 to 5.00. For the same molecule, the pEC50 in assay [2] was 4.30 to 5.00.

As to `Cn1cnnc1-c1ccccc1-c1cccc(N2Cc3c(cc(Br)cc3C(F)(F)F)C2=O)c1` [AY-1, 6-Bromo-2-(2′-(4-methyl-4H-1,2,4-triazol-3-yl)-[1,1′-biphenyl]-3-yl)-4-(trifluoromethyl)isoindolin-1-one], in assay [1], the pIC50 was 6.00 to 6.70. Further, in assay [2], the pEC50 was 4.30 to 5.00.

With `CCNc1cc(-c2ccccc2-c2nncn2C)cc(N2Cc3c(cc(COC4CCNCC4)cc3C(F)(F)F)C2=O)n1` [BA-4, 2-(6-(Ethylamino)-4-(2-(4-methyl-4H-1,2,4-triazol-3-yl)phenyl)pyridin-2-yl)-6-((piperidin-4-yloxy)methyl)-4-(trifluoromethyl)isoindolin-1-one, HCl], the pIC50 in assay [1] was at least 6.70. Besides, the pEC50 in assay [2] was 5.00 to 6.00.

As for `Cn1cnnc1-c1ccccc1-c1cccc(N2Cc3c(cc(COC4CCN(C(=O)OC(C)(C)C)CC4)cc3C(F)(F)F)C2=O)c1` [BB-1, tert-Butyl 4-((2-(2′-(4-methyl-4H-1,2,4-triazol-3-yl)-[1,1′-biphenyl]-3-yl)-3-oxo-7-(trifluoromethyl)isoindolin-5-yl)methoxy)piperidine-1-carboxylate], the pIC50 in assay [1] is 6.00 to 6.70. Further, in assay [2], the pEC50 was 4.30 to 5.00.

Turning to `CN1CCC(OCc2cc3c(c(C(F)(F)F)c2)CN(c2cccc(-c4ccccc4-c4nncn4C)c2)C3=O)CC1` [BC-4, 2-(2′-(4-Methyl-4H-1,2,4-triazol-3-yl)-[1,1′-biphenyl]-3-yl)-6-(((1-methylpiperidin-4-yl)oxy)methyl)-4-(trifluoromethyl)isoindolin-1-one], the pIC50 in assay [1] was 6.00 to 6.70. Moreover, in assay [2], the pEC50 was 5.00 to 6.00.

As for `Cn1cnnc1-c1ccccc1-c1cccc(N2Cc3c(cc(COC4CCOCC4)cc3C(F)(F)F)C2=O)c1` [BD-3, 2-(2′-(4-Methyl-4H-1,2,4-triazol-3-yl)-[1,1′-biphenyl]-3-yl)-6-(((tetrahydro-2H-pyran-4-yl)oxy)methyl)-4-(trifluoromethyl)isoindolin-1-one], the pIC50 in assay [1] was at least 6.70. The pEC50 in assay [2] was 5.00 to 6.00.

Consider `Cn1cnnc1-c1cc(C#N)ccc1-c1cccc(N2Cc3c(cc(CN[C@@H]4CCC[C@@H]4O)cc3C(F)(F)F)C2=O)c1` [BE-3, 3′-(6-((((1R,2S)-2-Hydroxycyclopentyl)amino)methyl)-1-oxo-4-(trifluoromethyl)isoindolin-2-yl)-2-(4-methyl-4H-1,2,4-triazol-3-yl)-[1,1′-biphenyl]-4-carbonitrile], for which the pIC50 in assay [1] is at least 6.70. For the same molecule, the pEC50 in assay [2] was above 6.70.
